Laboratory results taken from US8099262B2, “Estimation of clinical cut-offs” (priority 2004, dated 2012).
Like-named read-outs stand apart in the source and are kept apart here.

Legend:
HIV [1] = conditions: Definition 3
From the text: This methodology constructs tree-structured rules in order to classify patients as successes (undetectable pathogen load after treatment) and failures. […] Imbalances for such parameters may therefore influence the decision taken for a certain parameter.
The classification tree poses queries, in which the answer to each query results in either the left or the right branch of the tree being taken at each stage. […] If yes, the left branch is taken, if no the right branch is taken. As with the methods of the aspects of the invention described previously, the other factors queried include the log baseline pathogen load and the phenotypic sensitivity score. The numbers at the termini of the final branches represent the response rate (1=100% response).
The clinical cut-off is chosen as the fold change that makes the difference between the two groups as large as possible.
In the classification trees model, tree-structured rules were constructed in order to classify patients in successes (undetectable viral load after treatment) and failures. The same parameters as for the other techniques were considered.
This implies that imbalances for other parameters may influence the decision taken for a certain parameter.
Definition 3 was a variant of definition 2.
Using definition 3, breakpoints determined by classification trees are applicable only to a subset of patients unless fold change is selected at the first tree node.

HIV [2] = format: in vivo
From the text: Further factors which may be taken into account when validating the model are the odds ratios determined using clinical cutoffs compared to those determined using biological cutoffs. These ratios represent the odds of being a responder in the group that is labeled resistant by the cutoffs divided by the odds of being a responder in the group that is labeled sensitive by the cutoffs. In this way it is possible to evaluate how well the cutoffs perform on a drug by drug basis. The further away that the odds ratio is from 1, the stronger the correlation between the resistance class and clinical outcome. The odds ratio as specified above yield numbers smaller than 1 as the odds of being a responder should be smaller in the higher resistance class. Put another way, the probability of response will decrease as the resistance increases. Additionally, if the odds ratio for the CCO is smaller than the odds ratio for the BCO, it can be concluded that the CCO is stronger correlated with clinical outcome and therefore gives a better prediction than the BCO.
(§1) A logistic regression model may be used to determine the odds ratio. The model used is the same as the logistic regression model described above except that the fold change in the model is replaced by the resistance class. The coefficient for the resistance class that is obtained from the model is the log (odds ratio). The advantage of using this model is that the odds ratio estimates can be adjusted for the baseline viral load and the cPSS score of the background regimen.
The columns headed CCO Odds Ratio and BCO Odds Ratio represent the odds of being a responder in the group that is labeled resistance by the cutoffs divided by the odds of being a responder in the group that is labeled sensitive by the cutoffs. For example, if there are four non-responders and one responder in the resistant group, and four responders and two non-responders in the sensitive group, the odds of being a responder in the resistant group is 1:4=0.25 and the odds of being a responder in the sensitive group is 4:2=2. […] The further away that the odds ratio is from 1, the stronger the correlation between the resistance class and clinical outcome.
The separation in groups (resistance/sensitive) can be done based on clinical cutoffs or biological cutoffs. This means that odds ratios based on clinical cutoffs (CCO) and odds ratios based on biological cutoffs (BCO) can be compared. If the odds ratio for the CCO is smaller than the odds ratio for the BCO, it can be concluded that the CCO gives a better prediction than the BCO.
as §1, with “In practice, a” for “A”, “is” for “may be”, “similar to” for “the same as the”, “earlier” for “above”, “regimen. […] In this case, a larger odds ratio indicates a stronger correlation with clinical outcome.” for “regimen.”

With `CC(C)OC(=O)OCOP(=O)(CO[C@H](C)Cn1cnc2c(N)ncnc21)OCOC(=O)OC(C)C.O=C(O)/C=C/C(=O)O` [TDF] the “Classification Tree Lower CO” value (HIV [1]; Overall) was 1.15, the “Classification Tree Lower CO” value (HIV [1]; Subgroup 1: PSS = 2, baseline Log (VL) = 4) was 1.15 and the “Classification Tree Lower CO” value (HIV [1]; Subgroup 2: PSS = 0, baseline Log (VL) = 4) was 1.15. The “Classification Tree Lower CO” value (HIV [1]; Subgroup 3: PSS = 2, baseline Log (VL) = 5) was 1.15, the “Test Data BCO Odds Ratio” value (HIV [2]; test data, biological cutoffs) was 0.570 and the “Test Data CCO Odds Ratio” value (HIV [2]; test data, clinical cutoffs) was 0.228. The “Validation Data CCO Odds Ratio” value (HIV [2]; validation data, clinical cutoffs) was 0.226.
